Test results reported in paper PMC6423129, “Activity and structural analysis of GRL-117C: a novel small molecule CCR5 inhibitor active against R5-tropic HIV-1s” (Scientific Reports, 2019).

How the values were obtained:
R5-HIV-1Ba-L = experiment: MAGI assay using MAGI/CCR5 cells and R5-HIV-1Ba-L; assay type: cell-based; conditions: Human immunodeficiency virus 1, BAL, Ba-L (MAGI)
Method: (§1) MAGI-CCR5 cells[18] were maintained in DMEM supplemented with 10% fetal calf serum (FCS: Gemini Bio-Products, West Sacramento, CA), 200 μg/ml G418, 100 μg/ml hygromycin B, and 100 μg/ml zeomycin. The Chinese hamster ovary (CHO) cells expressing CCR5[19] were maintained in Ham’s F-12 medium (GIBCO-BRL, Rockville, MD) supplemented with 10% FCS, 50 U/ml penicillin, and 50 μg/ml streptomycin in the presence of 5 μg/ml blasticidin S hydrochloride. TZM-bl cells were obtained from the NIH AIDS Reagent Program, and were cultured in DMEM with 10% FCS. Peripheral blood mononuclear cells (PBMCs) were isolated from buffy coats of HIV-1 seronegative individuals, and were activated with 10 μg/ml phytohemagglutinin (PHA) prior to use[16]. A laboratory wild-type R5-HIV-1 strain (HIV-1Ba-L)[37] was employed for drug susceptibility assays. AD101 (experimental CCR5 inhibitor) and VVC-resistant HIV clones[7],[8] were provided by Dr. John P. Moore of Cornell University for this study. The clones were propagated with activated PBMCs, and were used for the assays. A clinical HIV-1 strain, HIV-1KP-5pc, and an MVC-resistant isolate, HIV-1KP-5mvcR, were prepared and used for antiviral assays, as previously described[10],[38]. The following reagents (plasmids) for T/F HIV-1 viruses[22],[24] were obtained through the NIH AIDS Reagent Program, Division of AIDS, NIAID, NIH: pCH040.c/2625 (cat# 11740), pCH106.c/2633 (cat# 11743), pTHRO.c/2626 (cat# 11745), and pCH058.c/2960 (cat# 11856), from Dr. John Kappes and Dr. Christina Ochsenbauer.
(§2) Antiviral assays using PHA-PBMCs (p24 assay) were conducted as previously reported[16],[38]. In brief, PHA-PBMCs (1 × 10^6/ml) were exposed to 50 TCID50 of HIV-1Ba-L or drug-resistant HIV-1 infectious clones in the presence or absence of various concentrations of drugs; 10-fold serial dilutions were performed in 96-well microculture plates. The amount of p24 antigens produced by the cells was determined on day 7 in the culture via a commercially available ELISA kit (PerkinElmer). The p24 production level in drug-free control cell cultures was used as the reference. […] Antiviral assays using MAGI-CCR5 cells (MAGI assay) were conducted as previously reported[16],[39]. Single-round virus infection assays using TZM-bl cells infected with R5-HIV-1s (HIV-1YU2, HIV-1KP-5pc, and HIV-1KP-5mvcR)[10] were also conducted as previously described.

pCH0.6.c/2633 = experiment: MAGI assay, T/F HIV-1 clone pCH0.6.c/2633; assay type: cell-based; conditions: Human immunodeficiency virus 1, MAGI
Source text: We also examined the activity of GRL-compounds against Transmitter/founder (T/F) HIV-1 viruses. T/F viruses are involved in the initial infection. It is considered that T/F viruses virtually always use CCR5 rather than CXCR4 and infect T cells but not macrophages because […] of CD4 is needed to mediate virus entry for the initial transmission[20]–[24]. […] We obtained four HIV-1 T/F infectious clones. We determined the antiviral activity of GRL-117C, GRL-10007C and GRL-10018C on these HIV-1 clones using MAGI assay.
as §1, with “A clinical HIV-1 strain, HIV-1KP-5pc, and an MVC-resistant isolate, HIV-1KP-5mvcR, were prepared and used for antiviral assays, as previously described[10],[38].” left out
as §2

CCR5 [1] = target: T1, CCR5 (Homo sapiens, UniProt P51681); experiment: Inhibition of 125I-MIP-1α binding to CCR5 (CCR5+ CHO cells)
T1 construct: expressed in transfected cells; host or cells: Chinese hamster ovary (CHO) cells expressing CCR5
T1 sequence (P51681 whole entry): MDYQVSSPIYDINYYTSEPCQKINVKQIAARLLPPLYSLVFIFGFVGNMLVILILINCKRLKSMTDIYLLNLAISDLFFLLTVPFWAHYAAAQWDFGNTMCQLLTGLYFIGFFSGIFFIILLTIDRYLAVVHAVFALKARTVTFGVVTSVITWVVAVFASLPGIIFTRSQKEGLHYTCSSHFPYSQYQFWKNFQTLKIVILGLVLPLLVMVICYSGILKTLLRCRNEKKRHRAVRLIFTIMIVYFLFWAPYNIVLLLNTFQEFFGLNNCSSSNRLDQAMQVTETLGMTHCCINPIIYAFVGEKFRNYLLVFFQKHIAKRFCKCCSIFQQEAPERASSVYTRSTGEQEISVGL
Method: (§3) In order to determine whether GRL derivatives block the binding of CC-chemokines to CCR5, we conducted a CC-chemokine binding inhibition assay using ^125I-labeled CC-chemokines (^125I-RANTES, ^125I-MIP-1α, and ^125I-MIP-1β) and CCR5 expressing cells.
(§4) CCR5^+ CHO cells were incubated with (A) ^125I-MIP-1α, (B) ^125I-MIP-1β, and (C) ^125I-RANTES (200 ng/ml) in the presence or absence of varying concentrations of CCR5 inhibitors. Data are shown as means ± s.d. of three independent experiments.
(§5) The inhibition of the binding of ^125I-labeled CC-chemokines ([^125I] RANTES, [^125I] MIP-1α, or [^125I] MIP-1β) to CCR5 by various CCR5 inhibitors was measured as previously described. Calcium flux inhibition assays were also performed with CCR5 inhibitors, and were carried out with the Fluo-4 Direct^TM calcium reagent (Invitrogen); assays were conducted as previously described with minor modifications. In brief, CHO-CCR5 cells (5 × 10^5 cells) were exposed to Fluo-4 Direct^TM calcium reagent for 60 min at 37 °C in RPMI containing 5% FCS. Cells were then incubated with the test compound for 30 min at varying concentrations. Subsequently, cells were exposed to either MIP-1α, MIP-1β, or RANTES at 200 ng/ml. Relative increases in cytosolic Ca^2+ levels after chemokine exposure were determined with flow cytometry (FACSCalibur, BD Biosciences), and IC50 values of cytosolic Ca^2+ mobilization (Ca^2+ flux) were compared with the Ca^2+ flux level in drug-free control samples.

CCR5 [2] = target: T1, CCR5; experiment: Inhibition of 125I-RANTES binding to CCR5 (CCR5+ CHO cells)
Method: as §3, §4, §5

Structure (SMILES): C=CCN(C(=O)OCc1ccc([N+](=O)[O-])cc1)C1CC2CCC(C1)N2CCC(C)(CN(C)S(=O)(=O)c1ccccc1)c1ccccc1 (centres unmarked) [GRL-117C]
- IC50 (R5-HIV-1Ba-L): 0.6 nM
- IC90 (R5-HIV-1Ba-L): 8.9 nM
- IC50 (pCH0.6.c/2633): 1.9 ± 0.3 nM
- EC50 (CCR5 [1]): 4.3 nM
- EC50 (CCR5 [2]): 121 nM
